Assay results: article PMC5458211, “Mitochondrial VDAC1-based peptides: Attacking oncogenic properties in glioblastoma” (Oncotarget, 2017)
Non-standard residues stand in square brackets, D forms with d. Residues, ends and D or L forms follow the SMILES beside them.

Key:
[1] = test system: mitochondrial membrane potential (ΔΨm) in U-87MG cells; assay: Mitochondrial membrane potential (TMRM); format: cell-based, human; settings: 3 h
Procedure: Figure 2 Mode of action of VDAC1-based peptides – interacting with- and detaching HK, releasing Cyto c, decreasing ATP level and inducing apoptosis A. Purified HK-II was fluorescently labeled using the NanoTemper protein-labeling Kit BLUE. […] Then, 3-5 μl of the samples were loaded into MST-grade glass capillaries and thermophoresis was measured using a Monolith-NT115 apparatus, as described in Materials and methods available online in Supplemental information. […] The final DMSO concentration in control and peptide-treated cells was 0.07%. Fixed cells were visualized using confocal microscopy (Olympus 1×81), as described in Materials and Methods available online in Supplemental information. […] The levels of HK in the supernatants were quantified and are presented as relative units. D. D-ΔN-Ter-Antp induces mitochondrial inner membrane depolarization analyzed as described in Materials and Methods available online in Supplemental information. […] Cells then were analyzed for Δψ using TMRM. Δψ is presented as percentage of control. […] Release of Cyto c from the mitochondria was analyzed by immunostaining using anti-Cyto c antibodies and confocal microscopy (Olympus 1×81) as described in Materials and Methods available online in Supplemental information. […] Quantification of apoptosis in control and peptide's treated cells are presented bellow the images. […]

U-87MG cells = assay: Morphological analysis of apoptosis by electron microscopy; format: cell-based, human; settings: 6 h, serum-free medium, Suppl Fig 2C
Procedure: Supplementary Figure 2: Mode of action of VDAC1-based peptides. […]
detachment. SH-SY5Y cells (4×10^4/ml) were grown on cover slips, transfected with plasmid pEGFP-HK-I and after 24 h, were incubated […]
The final DMSO concentration in control and peptide-treated cells was 0.07%. Fixed cells were stained with DAPI and visualized by confocal microscopy (Olympus 1X81). Arrows indicate cells […]
showing diffusion of HK-I-GFP. B-C. […] B. SH-SY5Y cells were treated with the indicated […]
Arrows and arrowheads indicate cells with membrane blebbing (early apoptotic state) and late apoptotic states, respectively. C. Morphological analysis of apoptosis by electron microscopy (EM). For transmission EM, U-87MG cells (1.6 x10^6 /ml) were incubated with the indicated concentrations of D-ΔN-Ter-Antp peptide or DMSO (0.3% final concentration) for 6 h in serum-free medium. Cells were pelleted and fixed in Karnovsky’s fixative (2% paraformaldehyde, 2.5% glutaraldehyde in 0.1 M cacodylate buffer, pH 7.4) for 10 minutes at room temperature and then in fresh fixative for 3.5 days in the cold. Following buffer rinses, the cells were incubated with 1% osmium tetroxide in 0.1 M cacodylate buffer, dehydrated in an ethanol series, incubated with epoxy propane and embedded in Araldite resin. […]

Structure (SMILES): CC[C@@H](C)[C@@H](NC(=O)[C@@H](CCCCN)NC(=O)[C@H](NC(=O)[C@@H](CCC(N)=O)NC(=O)[C@@H](CCCNC(=N)N)NC(=O)[C@@H](CC(C)C)NC(=O)CNC(=O)[C@@H](Cc1ccccc1)NC(=O)CNC(=O)[C@@H](Cc1ccc(O)cc1)NC(=O)CNC(=O)[C@@H](CCCCN)NC(=O)[C@H](NC(=O)[C@@H](Cc1ccccc1)NC(=O)[C@H](NC(=O)[C@@H](CC(=O)O)NC(=O)[C@H](N)CCCNC(=N)N)C(C)C)[C@H](C)O)[C@H](C)CC)C(=O)N[C@H](Cc1c[nH]c2ccccc12)C(=O)N[C@H](Cc1ccccc1)C(=O)N[C@H](CCC(N)=O)C(=O)N[C@H](CC(N)=O)C(=O)N[C@H](CCCNC(=N)N)C(=O)N[C@H](CCCNC(=N)N)C(=O)N[C@H](CCSC)C(=O)N[C@H](CCCCN)C(=O)N[C@H](Cc1c[nH]c2ccccc12)C(=O)N[C@H](CCCCN)C(=O)N[C@H](CCCCN)C(=O)O [D-ΔN-Ter-Antp] (H-[dR][dD][dV][dF][dT][dK]G[dY]G[dF]G[dL][dR][dQ][dI][dK][dI][dW][dF][dQ][dN][dR][dR][dM][dK][dW][dK][dK]-OH; N-terminus and C-terminus assumed)
- mitochondrial membrane potential (TMRM fluorescence) [1]: decrease in ΔΨm
- apoptotic morphological changes (electron microscopy) (U-87MG cells): condensation of nuclei, DNA fragmentation, and possible apoptotic body formation
